# Experiments:
# [1] = target: T1, Histone-arginine methyltransferase CARM1 (Homo sapiens, UniProt Q86X55)
# T1 sequence (Q86X55 whole entry): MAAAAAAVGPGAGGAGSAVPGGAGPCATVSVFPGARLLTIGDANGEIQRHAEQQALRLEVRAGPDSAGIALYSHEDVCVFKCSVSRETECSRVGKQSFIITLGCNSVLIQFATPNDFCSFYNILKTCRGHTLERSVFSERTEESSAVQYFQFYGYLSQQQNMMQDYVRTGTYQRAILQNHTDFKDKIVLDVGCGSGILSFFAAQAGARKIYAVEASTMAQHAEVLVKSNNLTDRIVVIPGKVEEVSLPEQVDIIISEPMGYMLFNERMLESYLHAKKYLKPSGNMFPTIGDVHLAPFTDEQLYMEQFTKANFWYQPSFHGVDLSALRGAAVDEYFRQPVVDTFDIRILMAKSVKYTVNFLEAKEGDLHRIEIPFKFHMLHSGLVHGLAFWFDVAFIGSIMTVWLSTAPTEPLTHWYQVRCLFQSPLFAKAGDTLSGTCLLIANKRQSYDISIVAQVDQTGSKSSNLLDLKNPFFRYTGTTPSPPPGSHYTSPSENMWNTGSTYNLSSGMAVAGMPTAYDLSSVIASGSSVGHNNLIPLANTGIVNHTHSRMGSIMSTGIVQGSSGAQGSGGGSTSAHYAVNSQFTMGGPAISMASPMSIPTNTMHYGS
# Description: Inhibition of CARM1 (unknown origin)
# [2] = target: T2, Protein arginine N-methyltransferase 7 (Homo sapiens, UniProt Q9NVM4); test: Inhibition of PRMT7 (unknown origin)
# T2 sequence (Q9NVM4 whole entry): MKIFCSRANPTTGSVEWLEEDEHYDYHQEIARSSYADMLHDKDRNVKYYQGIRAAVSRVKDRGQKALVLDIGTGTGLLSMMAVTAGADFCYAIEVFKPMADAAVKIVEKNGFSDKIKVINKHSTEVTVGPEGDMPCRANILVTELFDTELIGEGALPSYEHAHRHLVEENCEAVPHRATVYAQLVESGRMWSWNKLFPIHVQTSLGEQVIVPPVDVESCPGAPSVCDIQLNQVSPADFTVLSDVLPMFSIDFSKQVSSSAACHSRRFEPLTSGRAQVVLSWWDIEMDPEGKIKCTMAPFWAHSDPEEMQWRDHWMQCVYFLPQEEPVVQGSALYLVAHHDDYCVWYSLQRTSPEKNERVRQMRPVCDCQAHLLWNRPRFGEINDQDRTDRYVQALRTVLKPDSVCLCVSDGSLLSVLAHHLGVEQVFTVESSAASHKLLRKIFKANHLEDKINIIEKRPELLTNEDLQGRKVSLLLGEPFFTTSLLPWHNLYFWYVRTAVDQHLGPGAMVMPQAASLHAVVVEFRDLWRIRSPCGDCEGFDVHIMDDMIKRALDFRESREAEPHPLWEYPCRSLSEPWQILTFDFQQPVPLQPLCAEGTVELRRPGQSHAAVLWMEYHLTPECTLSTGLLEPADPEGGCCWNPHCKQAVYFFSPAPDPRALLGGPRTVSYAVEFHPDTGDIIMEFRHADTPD
# [3] = target: Protein arginine N-methyltransferase 5 (Homo sapiens, UniProt O14744); test: Inhibition of PRMT5 (unknown origin)
# [4] = target: Protein arginine N-methyltransferase 6 (Homo sapiens, UniProt Q96LA8); test: Inhibition of PRMT6 (unknown origin)
# [5] = target: Protein arginine N-methyltransferase 8 (Homo sapiens, UniProt Q9NR22); test: Inhibition of PRMT8 (unknown origin)
# [6] = target: Protein arginine N-methyltransferase 3 (Homo sapiens, UniProt O60678); test: Inhibition of PRMT3 (unknown origin)
# Sequence of Protein arginine N-methyltransferase 3 (O60678 whole entry): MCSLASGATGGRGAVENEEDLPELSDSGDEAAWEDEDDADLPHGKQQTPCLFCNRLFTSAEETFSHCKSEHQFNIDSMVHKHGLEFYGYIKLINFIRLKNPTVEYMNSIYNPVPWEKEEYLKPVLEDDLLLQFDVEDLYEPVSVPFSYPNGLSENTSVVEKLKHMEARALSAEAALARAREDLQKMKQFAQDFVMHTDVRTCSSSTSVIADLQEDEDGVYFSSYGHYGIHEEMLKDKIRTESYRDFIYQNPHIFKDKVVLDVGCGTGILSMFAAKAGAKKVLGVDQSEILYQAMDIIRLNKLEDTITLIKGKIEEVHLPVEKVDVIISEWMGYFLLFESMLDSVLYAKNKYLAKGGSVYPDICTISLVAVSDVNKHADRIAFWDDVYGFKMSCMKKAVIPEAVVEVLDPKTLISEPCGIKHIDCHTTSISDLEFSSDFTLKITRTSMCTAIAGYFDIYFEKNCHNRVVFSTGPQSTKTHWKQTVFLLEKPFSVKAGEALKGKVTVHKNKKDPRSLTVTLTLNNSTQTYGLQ
# Sequence of Protein arginine N-methyltransferase 8 (Q9NR22 whole entry): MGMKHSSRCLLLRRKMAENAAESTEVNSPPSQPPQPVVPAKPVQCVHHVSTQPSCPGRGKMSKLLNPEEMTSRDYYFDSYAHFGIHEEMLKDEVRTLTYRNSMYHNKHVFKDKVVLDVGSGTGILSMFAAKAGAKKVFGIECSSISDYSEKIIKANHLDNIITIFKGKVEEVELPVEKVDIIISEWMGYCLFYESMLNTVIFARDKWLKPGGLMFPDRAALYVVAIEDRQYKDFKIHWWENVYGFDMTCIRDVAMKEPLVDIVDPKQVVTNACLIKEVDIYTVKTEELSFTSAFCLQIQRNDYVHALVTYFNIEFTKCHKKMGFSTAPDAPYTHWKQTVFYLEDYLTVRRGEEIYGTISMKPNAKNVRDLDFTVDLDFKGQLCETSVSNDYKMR
# Sequence of Protein arginine N-methyltransferase 6 (Q96LA8 whole entry): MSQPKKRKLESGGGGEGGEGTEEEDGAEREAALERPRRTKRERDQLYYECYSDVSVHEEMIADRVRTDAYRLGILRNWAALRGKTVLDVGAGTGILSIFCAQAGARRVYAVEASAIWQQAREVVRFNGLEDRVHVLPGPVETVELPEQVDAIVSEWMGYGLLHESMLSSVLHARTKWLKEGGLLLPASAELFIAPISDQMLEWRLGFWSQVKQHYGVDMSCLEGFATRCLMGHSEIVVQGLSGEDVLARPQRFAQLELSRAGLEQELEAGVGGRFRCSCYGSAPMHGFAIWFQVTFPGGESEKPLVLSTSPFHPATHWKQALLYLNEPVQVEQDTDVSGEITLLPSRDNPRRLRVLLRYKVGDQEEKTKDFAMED
# Sequence of Protein arginine N-methyltransferase 5 (O14744 whole entry): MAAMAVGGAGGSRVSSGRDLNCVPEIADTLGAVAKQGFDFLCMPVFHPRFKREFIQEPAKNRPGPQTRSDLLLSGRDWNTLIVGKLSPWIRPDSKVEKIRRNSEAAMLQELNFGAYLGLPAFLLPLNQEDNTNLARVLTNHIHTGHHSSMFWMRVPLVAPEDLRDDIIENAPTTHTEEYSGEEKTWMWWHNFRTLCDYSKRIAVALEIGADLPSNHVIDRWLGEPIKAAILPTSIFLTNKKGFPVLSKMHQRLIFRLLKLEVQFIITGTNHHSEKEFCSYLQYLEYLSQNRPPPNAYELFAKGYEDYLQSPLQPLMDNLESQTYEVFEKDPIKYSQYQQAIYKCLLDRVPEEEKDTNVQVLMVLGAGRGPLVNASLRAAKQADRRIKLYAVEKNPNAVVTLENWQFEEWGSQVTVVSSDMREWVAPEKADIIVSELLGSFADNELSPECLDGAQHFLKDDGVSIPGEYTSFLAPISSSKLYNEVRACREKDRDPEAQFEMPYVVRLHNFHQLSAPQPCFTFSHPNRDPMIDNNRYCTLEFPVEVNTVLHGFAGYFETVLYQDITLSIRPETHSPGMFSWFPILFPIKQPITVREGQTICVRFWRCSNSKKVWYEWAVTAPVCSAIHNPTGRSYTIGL
IC50 [2] [nM],IC50 [3] [nM],IC50 [4] [nM],IC50 [5] [nM],IC50 [6] [nM],Structure (SMILES),IC50 [1] [nM]
,,,,,CNCC(O)CN1CCc2c(cccc2OCc2ccc(-c3nccs3)cc2)C1 (stereo unspecified),21
> 100000,> 100000,64,73,942,CNC[C@H](O)CN(C)Cc1ccccc1OCc1ccc(-c2nccs2)c(Cl)c1,
